Target: T1, human recombinant HDAC6 (Homo sapiens, UniProt Q9UBN7)
T1 construct: purchased Calbiochem 382180
T1 sequence (Q9UBN7 1-1215): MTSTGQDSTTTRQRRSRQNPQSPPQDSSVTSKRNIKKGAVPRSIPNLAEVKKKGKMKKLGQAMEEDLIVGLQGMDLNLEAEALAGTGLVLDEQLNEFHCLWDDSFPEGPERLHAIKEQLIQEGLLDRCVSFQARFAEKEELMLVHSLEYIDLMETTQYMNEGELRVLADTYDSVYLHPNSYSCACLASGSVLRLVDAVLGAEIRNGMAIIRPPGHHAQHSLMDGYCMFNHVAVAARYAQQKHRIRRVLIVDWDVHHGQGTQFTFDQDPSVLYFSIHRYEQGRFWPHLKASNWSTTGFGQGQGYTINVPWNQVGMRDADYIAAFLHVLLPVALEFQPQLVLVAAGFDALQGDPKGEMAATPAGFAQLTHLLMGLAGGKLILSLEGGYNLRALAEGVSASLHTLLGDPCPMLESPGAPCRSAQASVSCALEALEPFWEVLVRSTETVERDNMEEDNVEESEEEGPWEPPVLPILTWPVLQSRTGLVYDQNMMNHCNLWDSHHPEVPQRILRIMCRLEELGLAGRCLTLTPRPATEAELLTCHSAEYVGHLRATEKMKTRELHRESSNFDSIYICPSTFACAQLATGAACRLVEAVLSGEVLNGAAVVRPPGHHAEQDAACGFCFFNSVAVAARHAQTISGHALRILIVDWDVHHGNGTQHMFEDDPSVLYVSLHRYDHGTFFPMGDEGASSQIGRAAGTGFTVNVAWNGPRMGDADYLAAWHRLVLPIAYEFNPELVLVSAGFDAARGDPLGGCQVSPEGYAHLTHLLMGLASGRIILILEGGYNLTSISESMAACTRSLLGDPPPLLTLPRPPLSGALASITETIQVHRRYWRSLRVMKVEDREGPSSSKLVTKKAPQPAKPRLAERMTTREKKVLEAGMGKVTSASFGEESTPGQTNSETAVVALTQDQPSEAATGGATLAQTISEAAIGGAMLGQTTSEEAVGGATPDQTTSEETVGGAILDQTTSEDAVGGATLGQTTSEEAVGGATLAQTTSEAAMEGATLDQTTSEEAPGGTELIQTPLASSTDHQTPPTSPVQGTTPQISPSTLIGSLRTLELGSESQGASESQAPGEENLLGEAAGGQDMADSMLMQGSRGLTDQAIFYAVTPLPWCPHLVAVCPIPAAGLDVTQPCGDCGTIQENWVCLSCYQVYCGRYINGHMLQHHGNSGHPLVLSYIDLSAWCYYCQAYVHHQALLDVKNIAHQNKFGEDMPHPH
Assay: HDAC6 enzyme activity inhibition assay (HDAC Fluorimetric Drug Discovery Kit)
Assay type: biochemical
Conditions: for HDAC6 selectivity (fold): HDAC6 over HDAC1; for IC50: human recombinant HDAC6, same protocol as HDAC1, read-out: HDAC6
In short: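 Fluorimetric deacetylase assay: 5-fold serial compound dilutions, 0.3 μg recombinant human enzyme (HDAC1 or HDAC6, same protocol), 10 μM Fluor de Lys-SIRT1 substrate, 60 min at 30 °C. Signal developed 30 min, measured at 360/460 nm; IC50 values derived.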

SMILES	HDAC6 selectivity (fold)	IC50
CN(C)[C@@H]1CCN(C(=O)N(Cc2ccc(-c3nnc(C(F)F)o3)cn2)c2ccc(F)c(Cl)c2)C1 [Compound 21602, (R)—N-(3-chloro-4-fluorophenyl)-N-((5-(5-(difluoromethyl)-1,3,4-oxadiazol-2-yl)pyridin-2-yl)methyl)-3-(dimethylamino)pyrrolidine-1-carboxamide]	526 fold	0.019 µM
O=C(N1CCOCC1)N(Cc1ccc(-c2nnc(C(F)F)o2)cn1)c1ccc(F)c(Cl)c1 [Compound 21619, N-(3-chloro-4-fluorophenyl)-N-((5-(5-(difluoromethyl)-1,3,4-oxadiazol-2-yl)pyridin-2-yl)methyl)morpholine-4-carboxamide]	517 fold	0.019 µM
CN1CCN(C(=O)N(Cc2ccc(-c3nnc(C(F)F)o3)cn2)c2ccc(F)c(Cl)c2)CC1 [Compound 21620, N-(3-chloro-4-fluorophenyl)-N-((5-(5-(difluoromethyl)-1,3,4-oxadiazol-2-yl)pyridin-2-yl)methyl)-4-methylpiperazine-1-carboxamide]	383 fold	0.026 µM
CN1CCN(c2cccc(N(Cc3ccc(-c4nnc(C(F)F)o4)cc3)C(=O)N3CCS(=O)(=O)CC3)c2)CC1 [Compound 21621, N-(4-(5-(difluoromethyl)-1,3,4-oxadiazol-2-yl)benzyl)-N-(3-(4-methylpiperazin-1-yl)phenyl)thiomorpholine-4-carboxamide 1,1-dioxide]	16 fold	0.637 µM
COc1cccc(N(Cc2ccc(-c3nnc(C(F)F)o3)cn2)C(=O)N2CCN(C)CC2)c1 [Compound 21622, N-((5-(5-(difluoromethyl)-1,3,4-oxadiazol-2-yl)pyridin-2-yl)methyl)-N-(3-methoxyphenyl)-4-methylpiperazine-1-carboxamide]	226 fold	0.044 µM
COc1ccc(N(Cc2ccc(-c3nnc(C(F)F)o3)cn2)C(=O)N2CCN(C)CC2)cc1 [Compound 21623, N-((5-(5-(difluoromethyl)-1,3,4-oxadiazol-2-yl)pyridin-2-yl)methyl)-N-(4-methoxyphenyl)-4-methylpiperazine-1-carboxamide]	290 fold	0.035 µM
CCN1CCN(C(=O)N(Cc2ccc(-c3nnc(C(F)F)o3)cn2)c2ccccc2)CC1 [Compound 21624, N-((5-(5-(difluoromethyl)-1,3,4-oxadiazol-2-yl)pyridin-2-yl)methyl)-4-ethyl-N-phenylpiperazine-1-carboxamide]	347 fold	0.029 µM
O=C(N1CCS(=O)(=O)CC1)N(Cc1ccc(-c2nnc(C(F)F)o2)cn1)c1ccccc1F [Compound 21625, N-((5-(5-(difluoromethyl)-1,3,4-oxadiazol-2-yl)pyridin-2-yl)methyl)-N-(2-fluorophenyl)thiomorpholine-4-carboxamide 1,1-dioxide]	422 fold	0.024 µM
O=C(N1CCS(=O)(=O)CC1)N(Cc1ccc(-c2nnc(C(F)F)o2)cn1)c1cccc(Cl)c1 [Compound 21626, N-(3-chlorophenyl)-N-((5-(5-(difluoromethyl)-1,3,4-oxadiazol-2-yl)pyridin-2-yl)methyl)thiomorpholine-4-carboxamide 1,1-dioxide]	645 fold	0.016 µM
CN1CCN(c2cccc(N(Cc3ccc(-c4nnc(C(F)F)o4)cn3)C(=O)N3CCS(=O)(=O)CC3)c2)CC1 [Compound 21627, N-((5-(5-(difluoromethyl)-1,3,4-oxadiazol-2-yl)pyridin-2-yl)methyl)-N-(3-(4-methylpiperazin-1-yl)phenyl)thiomorpholine-4-carboxamide 1,1-dioxide]	22 fold	0.457 µM
CN1CCN(c2ccc(N(Cc3ccc(-c4nnc(C(F)F)o4)cn3)C(=O)N3CCS(=O)(=O)CC3)cc2)CC1 [Compound 21628, N-((5-(5-(difluoromethyl)-1,3,4-oxadiazol-2-yl)pyridin-2-yl)methyl)-N-(4-(4-methylpiperazin-1-yl)phenyl)thiomorpholine-4-carboxamide 1,1-dioxide]	37 fold	0.271 µM
CCN1CCN(C(=O)N(Cc2ccc(-c3nnc(C(F)F)o3)cn2)c2ccc(F)c(Cl)c2)CC1 [Compound 21629, N-(3-chloro-4-fluorophenyl)-N-((5-(5-(difluoromethyl)-1,3,4-oxadiazol-2-yl)pyridin-2-yl)methyl)-4-ethylpiperazine-1-carboxamide]	880 fold	0.011 µM
O=C(N1CCOCC1)N(Cc1ccc(-c2nnc(C(F)F)o2)cn1)c1ccccc1 [Compound 21630, N-((5-(5-(difluoromethyl)-1,3,4-oxadiazol-2-yl)pyridin-2-yl)methyl)-N-phenylmorpholine-4-carboxamide]	549 fold	0.018 µM
O=C(N1CCS(=O)(=O)CC1)N(Cc1ccc(-c2nnc(C(F)F)o2)cn1)c1ccc(Oc2ccccc2)cc1 [Compound 21631, N-((5-(5-(difluoromethyl)-1,3,4-oxadiazol-2-yl)pyridin-2-yl)methyl)-N-(4-phenoxyphenyl)thiomorpholine-4-carboxamide 1,1-dioxide]	138 fold	0.072 µM
Cc1ccccc1N(Cc1ccc(-c2nnc(C(F)F)o2)cn1)C(=O)N1CCN(C)CC1 [Compound 21632, N-((5-(5-(difluoromethyl)-1,3,4-oxadiazol-2-yl)pyridin-2-yl)methyl)-4-methyl-N-(o-tolyl)piperazine-1-carboxamide]	245 fold	0.041 µM
Cc1ccccc1N(Cc1ccc(-c2nnc(C(F)(F)F)o2)cn1)C(=O)N1CCN(C)CC1 [Compound 21633, 4-Methyl-N-(o-tolyl)-N-((5-(5-(trifluoromethyl)-1,3,4-oxadiazol-2-yl)pyridin-2-yl)methyl)piperazine-1-carboxamide]	58 fold	0.173 µM
CN1CCN(C(=O)N(Cc2ccc(-c3nnc(C(F)(F)F)o3)cn2)c2ccccc2F)CC1 [Compound 21634, N-(2-fluorophenyl)-4-methyl-N-((5-(5-(trifluoromethyl)-1,3,4-oxadiazol-2-yl)pyridin-2-yl)methyl)piperazine-1-carboxamide]	83 fold	0.12 µM
CN(C)[C@H]1CCN(C(=O)N(Cc2ccc(-c3nnc(C(F)F)o3)cc2F)c2cccc(Cl)c2F)C1 [Compound 21643, (S)—N-(3-chloro-2-fluorophenyl)-N-(4-(5-(difluoromethyl)-1,3,4-oxadiazol-2-yl)-2-fluorobenzyl)-3-(dimethylamino)pyrrolidine-1-carboxamide]	352 fold	0.028 µM
CN(C)[C@H]1CCN(C(=O)N(Cc2ccc(-c3nnc(C(F)(F)F)o3)cc2F)c2cccc(Cl)c2F)C1 [Compound 21644, (S)—N-(3-chloro-2-fluorophenyl)-3-(dimethylamino)-N-(2-fluoro-4-(5-(trifluoromethyl)-1,3,4-oxadiazol-2-yl)benzyl)pyrrolidine-1-carboxamide]	74 fold	0.135 µM
CN(C)[C@@H]1CCN(C(=O)N(Cc2ccc(-c3nnc(C(F)(F)F)o3)cc2F)c2cccc(Cl)c2F)C1 [Compound 21645, (R)—N-(3-chloro-2-fluorophenyl)-3-(dimethylamino)-N-(2-fluoro-4-(5-(trifluoromethyl)-1,3,4-oxadiazol-2-yl)benzyl)pyrrolidine-1-carboxamide]	46 fold	0.216 µM
CCN1CCN(C(=O)N(Cc2ccc(-c3nnc(C(F)F)o3)cc2F)c2cccc(Cl)c2F)CC1 [Compound 21646, N-(3-chloro-2-fluorophenyl)-N-(4-(5-(difluoromethyl)-1,3,4-oxadiazol-2-yl)-2-fluorobenzyl)-4-ethylpiperazine-1-carboxamide]	317 fold	0.032 µM
